These compounds were tested against T1, GRK2 (Homo sapiens, UniProt P25098) (assay: hGRK2 LANCE Ultra In Vitro Assay). Details: hGRK2 LANCE Ultra Assay IC50, 10 nM GRK2; ATP 30 or 600 μM (not stated which).
T1 sequence (P25098 1-689): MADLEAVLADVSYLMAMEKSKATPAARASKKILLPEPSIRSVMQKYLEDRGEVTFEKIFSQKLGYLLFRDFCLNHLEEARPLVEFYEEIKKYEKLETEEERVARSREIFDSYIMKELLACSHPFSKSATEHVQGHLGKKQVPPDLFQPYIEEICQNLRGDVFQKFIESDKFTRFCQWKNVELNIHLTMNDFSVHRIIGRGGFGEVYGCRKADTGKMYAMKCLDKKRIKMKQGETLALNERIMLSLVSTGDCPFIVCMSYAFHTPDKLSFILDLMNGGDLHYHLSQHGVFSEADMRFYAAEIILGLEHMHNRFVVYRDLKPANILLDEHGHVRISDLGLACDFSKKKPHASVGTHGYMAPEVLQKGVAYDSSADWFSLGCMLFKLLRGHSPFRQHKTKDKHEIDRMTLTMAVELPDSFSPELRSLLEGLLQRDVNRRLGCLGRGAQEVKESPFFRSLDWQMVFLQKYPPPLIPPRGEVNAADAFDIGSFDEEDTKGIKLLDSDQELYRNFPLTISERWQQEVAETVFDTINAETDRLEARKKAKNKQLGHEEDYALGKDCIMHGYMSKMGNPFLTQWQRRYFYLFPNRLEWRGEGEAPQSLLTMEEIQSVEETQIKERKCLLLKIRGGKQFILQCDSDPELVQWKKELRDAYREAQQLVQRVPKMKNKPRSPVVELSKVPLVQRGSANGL
Format: biochemical
Description: G-protein coupled receptor kinases (GR Kinases) desensitize activated G-protein coupled receptors (GPCRs), by phosphorylation of cytoplasmic loops or carboxyl-terminal tails of GPCRs. GRK2 is one of the 6 different GR kinases and is implicated in heart failure and diabetes.
This assay is sensitive and requires as low as 10 nM enzyme, in a total volume of 10 μL. In addition, the ATP concentration can be varied over a broad range, without interfering with the assay or changing the assay condition. […] Testing inhibitors routinely at both high and low ATP concentrations also enables identification of potential non-ATP competitive inhibitors.
Paroxetine was used as the reference compound in this assay.
Test compounds were dissolved in DMSO at 1 mM and were 3-fold serial diluted. The compound DMSO solutions were then added (100 nL) into a plate well using an acoustic dispenser. To each well was then added 20 nM GRK2 (5 μL) in assay buffer (20 mM HEPES, pH 7.5, 10 mM MgCl2, 0.001% Tween-20®). The plate was sealed and centrifuged at 1000 rpm for 1 min. The plate and wells containing a mixture of GRK2 and test compound were incubated at ambient temperature for 30 min (prior to initializing the enzymatic reaction).
Enzyme reactions were initiated by the addition of 4.9 μL Substrates/Eu-Ab mix to each well. […] Final concentrations of reagents in the assays were as follows: 20 mM HEPES, pH 7.5; 10 mM MgCl2; 0.001% Tween-2® (w/v), 30 or 600 μM ATP; 200 nM ULight-peptide; 4 nM Eu-Ab; 10 nM GRK2; and 1% DMSO.
The plates were sealed and centrifuged at 1000 rpm for 1 min. For reactions at low ATP concentration (30 μM), reaction mixtures were incubated at ambient temperature for 120 min. For reactions at high ATP concentration (600 μM), reaction mixtures were incubated at ambient temperature for 60 min.
The enzyme reactions were quenched by addition of 10 μL of 12 mM EDTA in 1× LANCE detection solution to each well. The plates were then incubated at ambient temperature for 30 min.
The raw HTRF data were converted to % active as follows:
% active=(sample−NC)/(PC−NC)*100
where NC is the mean of negative control (reactions without GRK2), and PC is the mean of positive control (reactions with GRK2 but without inhibitor). IC50 values were determined from a 4-parameter fit, using the following equation:
Y=Bottom+(Top−Bottom)/(1+10^(Log IC50-X)*Hill slope)),
where X=log10 of the compound concentration.

IC50 [nM] | Structure (SMILES)
10 | C#CCNC(=O)c1cccc(Cn2ncc3ccc(-c4cn[nH]c4)cc3c2=O)c1 [Compound 8, 3-[[1-Oxo-7-(1H-pyrazol-4-yl)phthalazin-2-yl]methyl]-N-prop-2-ynyl-benzamide]
11 | COc1cccc(Cn2ncc3ccc(-c4cn[nH]c4)c(F)c3c2=O)c1 [Compound 9, 8-Fluoro-2-[(3-methoxyphenyl)methyl]-7-(1H-pyrazol-4-yl)phthalazin-1-one]
11 | COc1cccc(Cn2ncc3ccc(-c4cn[nH]c4)c(C#N)c3c2=O)c1 [Compound 10, 3-[(3-Methoxyphenyl)methyl]-4-oxo-6-(1H-pyrazol-4-yl)phthalazine-5-carbonitrile]
12 | CC(C)NC(=O)c1cc(Cn2ncc3ccc(-c4cn[nH]c4)cc3c2=O)ccc1F [Compound 11, 2-Fluoro-N-isopropyl-5-[[1-oxo-7-(1H-pyrazol-4-yl)phthalazin-2-yl]methyl]benzamide]
13 | CN(C)C(=O)COc1cccc(Cn2ncc3ccc(-c4cn[nH]c4)cc3c2=O)c1 [Compound 12, N,N-Dimethyl-2-[3-[[1-oxo-7-(1H-pyrazol-4-yl)phthalazin-2-yl]methyl]phenoxy]acetamide]
18 | O=C(NC1CC1)c1cc(Cn2ncc3ccc(-c4cn[nH]c4)cc3c2=O)ccc1F [Compound 13, N-Cyclopropyl-2-fluoro-5-[[1-oxo-7-(1H-pyrazol-4-yl)phthalazin-2-yl]methyl]benzamide]
25 | C#CCOc1cccc(Cn2ncc3ccc(-c4cn[nH]c4)c(F)c3c2=O)c1 [Compound 14, 8-Fluoro-2-[(3-prop-2-ynoxyphenyl)methyl]-7-(1H-pyrazol-4-yl)phthalazin-1-one]
33 | COc1cccc(C(CO)n2ncc3ccc(-c4cn[nH]c4)cc3c2=O)c1 (stereo not drawn) [Compound 15, 2-[2-Hydroxy-1-(3-methoxyphenyl)ethyl]-7-(1H-pyrazol-4-yl)phthalazin-1-one]
> 20000 | COc1cccc(C(C(=O)O)n2ncc3ccc(-c4cn[nH]c4)cc3c2=O)c1 (stereo not drawn) [Compound 18, 2-(3-Methoxyphenyl)-2-[1-oxo-7-(1H-pyrazol-4-yl)phthalazin-2-yl]acetic acid]

— US20220242850A1, “PHTHALAZIN-1-ONE DERIVATIVES USEFUL AS GRK2 INHIBITORS” (Janssen Pharmaceutica NV, priority 2019, published 2022)
